Assay results taken from patent US9580430B2, “9H-pyrimido[4,5-B]indoles and related analogs as BET bromodomain inhibitors” (THE REGENTS OF THE UNIVERSITY OF MICHIGAN, priority 2014, dated 2017).

Assays:
recombinant BRD4 BD1 = target: T1, recombinant BRD4 BD1 (Homo sapiens, UniProt O60885); test: Competitive fluorescence-polarization (FP) binding assay, BRD4 BD1; conditions: competitive FP assay; protein 10 nM, probe […]; read-out: IC50 (nM) BRD4 BD1; further: probe 1.5 nM
T1 construct: for recombinant BRD4 BD1 and BRD4 BD2 proteins
Summary of the method: (§1)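 Buffer: 100 mM potassium phosphate, pH 6.5, 0.01% Triton X-100; compounds added in buffer with 40% ethylene glycol to preformed complex of fluorescent probe with BRD4 BD1 (10 nM final) or BD2 (6 nM final). After 30 min at room temperature, polarization read. IC50 from nonlinear fits of competition curves, with Ki.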

recombinant BRD4 BD2 = target: T2, recombinant BRD4 BD2 (Homo sapiens, UniProt O60885); test: Competitive fluorescence-polarization (FP) binding assay, BRD4 BD2; conditions: competitive FP assay; protein 6 nM, probe […]; read-out: IC50 (nM) BRD4 BD2; further: probe 1.5 nM
T2 construct: for recombinant BRD4 BD1 and BRD4 BD2 proteins
Summary of the method: as §1

MOLM-13 = test: Cell growth inhibition, MOLM-13 leukemia cells (CellTiter-Glo); format: cell-based; conditions: Homo sapiens, MOLM-13, 96 h; 4 days; read-out: IC50 (nM) MOLM-13 Cell Line (CellTiter-Glo assay)
Summary of the method: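 Luminescent ATP-based viability (CellTiter-Glo, 10-20 min at room temperature) in compound-treated MOLM-13 cells; the half-maximal inhibitory concentration was calculated from the readout.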

MDA-MB-436 = test: Cell growth inhibition, MDA-MB-436 breast cancer cells (WST-8); format: cell-based; conditions: Homo sapiens, MDA-MB-436, 96 h; 4 days; read-out: IC50 (nM) MDA-MB-436 Cell Line (WST assay)
Summary of the method: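 IC50 was computed from WST-8-based cell counting in MDA-MB-436 cells, with absorbance read at 450 nm.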

| IC50 (recombinant BRD4 BD1) [nM] | IC50 (recombinant BRD4 BD2) [nM] | IC50 (MOLM-13) [nM] | IC50 (MDA-MB-436) [nM] | SMILES |
| --- | --- | --- | --- | --- |
| 9.6 | 5.8 | 23 | 23.5 | COc1cc2c(cc1-c1c(C)noc1C)[nH]c1nc(C)nc(Nc3cc(C(C)(C)C)nn3C)c12 [Cpd. No. 120, N-(3-tert-Butyl-1-methyl-1H-pyrazol-5-yl)-7-(3,5-dimethylisoxazol-4-yl)-6-methoxy-2-methyl-9H-pyrimido[4,5-b]indol-4-amine] |
| 1.6 | 3.2 | 11.7 | 11.2 | COc1cc2c(cc1-c1c(C)noc1C)[nH]c1nc(C)nc(Nc3cc(C4CC4)nn3C)c12 [Cpd. No. 121, N-(3-Cyclopropyl-1-methyl-1H-pyrazol-5-yl)-7-(3,5-dimethylisoxazol-4-yl)-6-methoxy-2-methyl-9H-pyrimido[4,5-b]indol-4-amine] |
| 4.3 | 2.3 | 6 | 7.8 | COc1cc2c(cc1-c1c(C)noc1C)[nH]c1nc(C)nc(Nc3c4c(nn3C)CCC4)c12 [Cpd. No. 122, 7-(3,5-Dimethylisoxazol-4-yl)-6-methoxy-2-methyl-N-(2-methyl-2,4,5,6-tetrahydrocyclopenta-[c]pyrazol-3-yl)-9H-pyrimido[4,5-b]indol-4-amine] |
| 257 | 483 | 759 | 1420 | COc1cc2c(cc1-c1c(C)noc1C)[nH]c1nc(C)nc(Nc3nn(C)c4cccnc34)c12 [Cpd. No. 123, 7-(3,5-Dimethylisoxazol-4-yl)-6-methoxy-2-methyl-N-(1-methyl-1H-pyrazolo[4,3-b]pyridin-3-yl)-9H-pyrimido[4,5-b]indol-4-amine] |
| 5 | 29.5 | 41.9 | 58.3 | COc1cc2c(cc1-c1c(C)noc1C)[nH]c1nc(C)nc(Nc3nn(C)c4c3CCCC4)c12 [Cpd. No. 124, 7-(3,5-Dimethylisoxazol-4-yl)-6-methoxy-2-methyl-N-(1-methyl-4,5,6,7-tetrahydro-1H-indazol-3-yl)-9H-pyrimido[4,5-b]indol-4-amine] |
| 4.4 | 2 | 11.3 | 17.5 | COc1cc2c(cc1-c1c(C)noc1C)[nH]c1nc(C)nc(Nc3c4c(nn3C)CCCC4)c12 [Cpd. No. 125, 7-(3,5-Dimethylisoxazol-4-yl)-6-methoxy-2-methyl-N-(2-methyl-4,5,6,7-tetrahydro-2H-indazol-3-yl)-9H-pyrimido[4,5-b]indol-4-amine] |
| 11 | 32.8 | 65.3 | 140 | COc1cc2c(cc1-c1c(C)noc1C)[nH]c1nc(C)nc(Nc3cc(C(C)(C)C)n[nH]3)c12 [Cpd. No. 126, N-(3-(tert-Butyl)-1H-pyrazol-5-yl)-7-(3,5-dimethylisoxazol-4-yl)-6-methoxy-2-methyl-9H-pyrimido[4,5-b]indol-4-amine] |
| 105 | 202 | 144 | 201 | COc1cc2c(cc1-c1c(C)noc1C)[nH]c1nc(C)nc(Nc3nn(C)c4c(F)cccc34)c12 [Cpd. No. 129, 7-(3,5-Dimethylisoxazol-4-yl)-N-(7-fluoro-1-methyl-1H-indazol-3-yl)-6-methoxy-2-methyl-9H-pyrimido[4,5-b]indol-4-amine] |
| 9.6 | 51.4 | 32.7 | 97.6 | COc1cc2c(cc1-c1c(C)noc1C)[nH]c1nc(C)nc(Nc3nn(CCO)c4ccccc34)c12 [Cpd. No. 131, 2-(3-((7-(3,5-Dimethylisoxazol-4-yl)-6-methoxy-2-methyl-9H-pyrimido[4,5-b]indol-4-yl)amino)-1H-indazol-1-yl)ethanol] |
| 68.6 | 718 | 97.5 | 224 | COc1cc2c(cc1-c1c(C)noc1C)[nH]c1nc(C)nc(Nc3nn(C)c4cccc(F)c34)c12 [Cpd. No. 132, 7-(3,5-Dimethylisoxazol-4-yl)-N-(4-fluoro-1-methyl-1H-indazol-3-yl)-6-methoxy-2-methyl-9H-pyrimido[4,5-b]indol-4-amine] |
| > 1000 | > 1000 | 433 | 47900 | COc1cc2c(cc1-c1c(C)noc1C)[nH]c1nc(C)nc(Nc3cc(C(C)(C)C)ns3)c12 [Cpd. No. 133, 3-(tert-Butyl)-N-(7-(3,5-dimethylisoxazol-4-yl)-6-methoxy-2-methyl-9H-pyrimido[4,5-b]indol-4-yl)isothiazol-5-amine] |
| 40.2 | 30.5 | 32 | 128 | COc1cc2c(cc1-c1c(C)noc1C)[nH]c1nc(C)nc(Nc3cnn4c3CCC4)c12 [Cpd. No. 134, N-(5,6-Dihydro-4H-pyrrolo[1,2-b]pyrazol-3-yl)-7-(3,5-dimethylisoxazol-4-yl)-6-methoxy-2-methyl-9H-pyrimido[4,5-b]indol-4-amine] |
| 5.6 | 1.3 | 30.2 | 57.6 | COc1cc2c(cc1-c1c(C)noc1C)[nH]c1nc(C)nc(Nc3c(C)cnn3C3CCCC3)c12 [Cpd. No. 135, N-(1-Cyclopentyl-4-methyl-1H-pyrazol-5-yl)-7-(3,5-dimethylisoxazol-4-yl)-6-methoxy-2-methyl-9H-pyrimido[4,5-b]indol-4-amine] |
| 10.5 | 6.9 | 26.6 | 63.2 | COc1cc2c(cc1-c1c(C)noc1C)[nH]c1nc(C)nc(Nc3cc(C4CCC4)nn3C)c12 [Cpd. No. 136, N-(3-Cyclobutyl-1-methyl-1H-pyrazol-5-yl)-7-(3,5-dimethylisoxazol-4-yl)-6-methoxy-2-methyl-9H-pyrimido[4,5-b]indol-4-amine] |
| 4.2 | 1.2 | 5.7 | 30.3 | COc1cc2c(cc1-c1c(C)noc1C)[nH]c1nc(C)nc(Nc3c4c(nn3C(C)C)CCCC4)c12 [Cpd. No. 138, 7-(3,5-Dimethylisoxazol-4-yl)-N-(2-isopropyl-4,5,6,7-tetrahydro-2H-indazol-3-yl)-6-methoxy-2-methyl-9H-pyrimido[4,5-b]indol-4-amine] |
| 16.3 | 16.5 | 49.2 | 110 | COc1cc2c(cc1-c1c(C)noc1C)[nH]c1nc(C)nc(Nc3cnn4c3CCCC4)c12 [Cpd. No. 139, 7-(3,5-Dimethylisoxazol-4-yl)-6-methoxy-2-methyl-N-(4,5,6,7-tetrahydropyrazolo[1,5-a]pyridin-3-yl)-9H-pyrimido[4,5-b]indol-4-amine] |
| 39.3 | 95 | 120 | 210 | COc1cc2c(cc1-c1c(C)noc1C)[nH]c1nc(C)nc(Nc3c(C4CC4)c(C)nn3C)c12 [Cpd. No. 140, N-(4-Cyclopropyl-1,3-dimethyl-1H-pyrazol-5-yl)-7-(3,5-dimethylisoxazol-4-yl)-6-methoxy-2-methyl-9H-pyrimido[4,5-b]indol-4-amine] |
| 4.5 | 0.5 | 1.1 | 7.3 | CCn1nc2c(c1Nc1nc(C)nc3[nH]c4cc(-c5c(C)noc5C)c(OC)cc4c13)CCCC2 [Cpd. No. 142, 7-(3,5-Dimethylisoxazol-4-yl)-N-(2-ethyl-4,5,6,7-tetrahydro-2H-indazol-3-yl)-6-methoxy-2-methyl-9H-pyrimido[4,5-b]indol-4-amine] |
| 27.9 | 57.7 | 98 | 175 | CCn1nc(C)c(C2CC2)c1Nc1nc(C)nc2[nH]c3cc(-c4c(C)noc4C)c(OC)cc3c12 [Cpd. No. 143, N-(4-Cyclopropyl-1-ethyl-3-methyl-1H-pyrazol-5-yl)-7-(3,5-dimethylisoxazol-4-yl)-6-methoxy-2-methyl-9H-pyrimido[4,5-b]indol-4-amine] |
| 18.9 | 56.9 | 69.5 | 170 | CCn1nc(C2CC2)c(C)c1Nc1nc(C)nc2[nH]c3cc(-c4c(C)noc4C)c(OC)cc3c12 [Cpd. No. 145, N-(3-Cyclopropyl-1-ethyl-4-methyl-1H-pyrazol-5-yl)-7-(3,5-dimethylisoxazol-4-yl)-6-methoxy-2-methyl-9H-pyrimido[4,5-b]indol-4-amine] |
| 13.7 | 7.7 | 26 | 39.2 | CCn1nc(C(F)(F)F)cc1Nc1nc(C)nc2[nH]c3cc(-c4c(C)noc4C)c(OC)cc3c12 [Cpd. No. 146, 7-(3,5-Dimethylisoxazol-4-yl)-N-(1-ethyl-3-(trifluoromethyl)-1H-pyrazol-5-yl)-6-methoxy-2-methyl-9H-pyrimido[4,5-b]indol-4-amine] |
| 59.9 | 93.7 | 201 | 319 | COc1cc2c(cc1-c1c(C)noc1C)[nH]c1nc(C)nc(Nc3c(C)c(C4CC4)nn3C)c12 [Cpd. No. 147, N-(3-Cyclopropyl-1,4-dimethyl-1H-pyrazol-5-yl)-7-(3,5-dimethylisoxazol-4-yl)-6-methoxy-2-methyl-9H-pyrimido[4,5-b]indol-4-amine] |
